Measured values reported in patent US11331299B2, “Medicinal use of serrulatane diterpenes” (The University of Sydney, priority 2016, dated 2022).
Read-outs that look alike come from different tables or passages of the source.

Test system: 280 human cancer cell lines
Test: OncoPanel cell proliferation assay (10-day)
Assay type: cell-based
Settings: Homo sapiens; for IC50: read-out: Cell Count IC50; for EC50: read-out: Cell Count EC50
[1] = SW872, SW872, Soft Tissue - Sarcoma
[2] = SW 954, SW954, Female GU - Vulva
[3] = SW982, SW982, Soft Tissue - Sarcoma
[4] = SW1353, SW1353, Soft Tissue - Osteosarcoma
[5] = TE 125.T, Soft Tissue - Sarcoma
[6] = TE 381.T, Soft Tissue - Sarcoma
[7] = U2OS, Soft Tissue - Osteosarcoma
[8] = U-118-MG, U-118 MG, CNS - Glioma
[9] = VA-ES-BJ, Soft Tissue - Sarcoma
[10] = WM 266-4, WM-266-4, Skin (Melanoma)

## CC(C)=CCC[C@H](C)[C@@H]1CC[C@@H](C)c2c1cc(C)c(O)c2O [Compound 4, 7,8-dihydroxyserrulat-14-ene]
SW837, SW837, Colon, read-out: Cell Count GI50
  GI50: 18.7 µM
SW837, SW837, Colon
  IC50: 18.9 µM
[1]
  EC50: 4.39 µM
  IC50: 4.39 µM
SW872, SW872, Soft Tissue - Sarcoma, read-out: Cell Count GI50
  GI50: 4.38 µM
SW900, SW900, Lung - SCLC
  EC50: 23.3 µM
  IC50: 23.3 µM
SW900, SW900, Lung - SCLC, read-out: Cell Count GI50
  GI50: 23.1 µM
SW948, SW948, Colon
  EC50: 29.7 µM
  IC50: > 30 µM
SW948, SW948, Colon, read-out: Cell Count GI50
  GI50: > 30 µM
[2]
  EC50: 21.7 µM
  IC50: 21.7 µM
SW 954, SW954, Female GU - Vulva, read-out: Cell Count GI50
  GI50: 21.6 µM
[3]
  EC50: 7.29 µM
  IC50: 7.3 µM
SW982, SW982, Soft Tissue - Sarcoma, read-out: Cell Count GI50
  GI50: 7.26 µM
SW1088, SW1088, CNS - Glioma
  EC50: 8.77 µM
  IC50: 8.77 µM
SW1088, SW1088, CNS - Glioma, read-out: Cell Count GI50
  GI50: 8.69 µM
[4]
  EC50: 4.15 µM
  IC50: 4.15 µM
SW1353, SW1353, Soft Tissue - Osteosarcoma, read-out: Cell Count GI50
  GI50: 4.14 µM
SW1417, SW1417, Colon
  EC50: > 30 µM
  IC50: > 30 µM
SW1417, SW1417, Colon, read-out: Cell Count GI50
  GI50: 29.3 µM
SW1463, SW1463, Colon
  EC50: 29.4 µM
  IC50: 29.6 µM
SW1463, SW1463, Colon, read-out: Cell Count GI50
  GI50: 29.5 µM
SW1783, SW1783, CNS - Glioma
  EC50: 12.3 µM
  IC50: 12.3 µM
SW1783, SW1783, CNS - Glioma, read-out: Cell Count GI50
  GI50: 12.1 µM
SW-403, SW403, Colon
  EC50: > 30 µM
  IC50: > 30 µM
SW-403, SW403, Colon, read-out: Cell Count GI50
  GI50: > 30 µM
SW-620, SW620, Colon
  EC50: 11.3 µM
  IC50: 11.3 µM
SW-620, SW620, Colon, read-out: Cell Count GI50
  GI50: 11.3 µM
SiHa, Female GU - Cervix
  EC50: 11.3 µM
  IC50: 13.5 µM
SiHa, Female GU - Cervix, read-out: Cell Count GI50
  GI50: 13.2 µM
T24, Bladder
  EC50: 12.2 µM
  IC50: 12.2 µM
T24, Bladder, read-out: Cell Count GI50
  GI50: 12.2 µM
T47D, Breast
  EC50: 3.28 µM
  IC50: 3.28 µM
T47D, Breast, read-out: Cell Count GI50
  GI50: 2.92 µM
T98G, CNS - Glioma
  EC50: 24.5 µM
  IC50: 24.5 µM
T98G, CNS - Glioma, read-out: Cell Count GI50
  GI50: 24.5 µM
TCC-SUP, TCCSUP, Bladder
  EC50: 8.91 µM
  IC50: 8.91 µM
TCC-SUP, TCCSUP, Bladder, read-out: Cell Count GI50
  GI50: 8.67 µM
[5]
  EC50: 23.6 µM
  IC50: 23.6 µM
TE 125.T, Soft Tissue - Sarcoma, read-out: Cell Count GI50
  GI50: 17 µM
[6]
  EC50: 6.28 µM
  IC50: 6.28 µM
TE 381.T, Soft Tissue - Sarcoma, read-out: Cell Count GI50
  GI50: 6.08 µM
TF-1, Leukemia
  EC50: 6.57 µM
  IC50: 6.57 µM
TF-1, Leukemia, read-out: Cell Count GI50
  GI50: 6.26 µM
THP-1, Thp1, Leukemia
  EC50: 12 µM
  IC50: 12 µM
THP-1, Thp1, Leukemia, read-out: Cell Count GI50
  GI50: 11.9 µM
TUR, Lymphoma
  EC50: 8.98 µM
  IC50: 8.98 µM
TUR, Lymphoma, read-out: Cell Count GI50
  GI50: 8.98 µM
[7]
  EC50: 4.21 µM
  IC50: 4.21 µM
U2OS, Soft Tissue - Osteosarcoma, read-out: Cell Count GI50
  GI50: 4.2 µM
U138-MG, U-138MG, CNS - Glioma
  EC50: 25 µM
  IC50: 25 µM
U138-MG, U-138MG, CNS - Glioma, read-out: Cell Count GI50
  GI50: 24.9 µM
U266B1, Myeloma
  EC50: 10.1 µM
  IC50: 10.1 µM
U266B1, Myeloma, read-out: Cell Count GI50
  GI50: 9.81 µM
U-87 MG, CNS - Glioma
  EC50: 13.8 µM
  IC50: 13.8 µM
U-87 MG, CNS - Glioma, read-out: Cell Count GI50
  GI50: 13.6 µM
[8]
  EC50: 13.9 µM
  IC50: 13.9 µM
U-118-MG, U-118 MG, CNS - Glioma, read-out: Cell Count GI50
  GI50: 13.6 µM
UMUC3, UM-UC-3, Bladder
  EC50: 3.83 µM
  IC50: 3.83 µM
UMUC3, UM-UC-3, Bladder, read-out: Cell Count GI50
  GI50: 3.82 µM
[9]
  EC50: 15.2 µM
  IC50: 15.2 µM
VA-ES-BJ, Soft Tissue - Sarcoma, read-out: Cell Count GI50
  GI50: 15 µM
[10]
  EC50: 10.9 µM
  IC50: 10.9 µM
WM 266-4, WM-266-4, Skin (Melanoma), read-out: Cell Count GI50
  GI50: 10.8 µM
WiDr, Colon
  EC50: 12.8 µM
  IC50: 12.8 µM
WiDr, Colon, read-out: Cell Count GI50
  GI50: 12.8 µM
Y79, Eye
  EC50: 5.65 µM
  IC50: 5.65 µM
Y79, Eye, read-out: Cell Count GI50
  GI50: 5.34 µM
YAPC, Pancreas
  EC50: 18 µM
  IC50: 18.2 µM
YAPC, Pancreas, read-out: Cell Count GI50
  GI50: 18.2 µM
strong: Daudi, DOHH-2, GA-10, L-428, ST486, MX1, NALM-6, T47D, CEM-C1, A-673, read-out: GI50
  GI50: 1.23 to 2.92 µM
